From US20100104518A1, “CHEWING GUM, CONFECTION, AND OTHER ORAL DELIVERY VEHICLES CONTAINING A TRADITIONAL CHINESE MEDICINE OR EXTRACT THEREOF” (priority 2006, published 2010)

Key:
Type in all cases: cell-based
[1] = tested on: F. nucleatum; experiment: Minimum Inhibitive Concentration test (MIC) of TCM extracts on oral bacteria; conditions: ethanol TCM extract; Schaedler broth, two-fold dilutions, 24 hrs at 37° C.
Protocol: (§1) To evaluate the germ-kill efficacy, the dried crude TCM bark, stem, leaf or root was ground to powder. 10-50 grams of TCM powder was mixed with 100 ml of ethanol. The mixture was super-sonicated for 10-15 minutes to extract the TCM actives. The mixture was further transferred into a Mixxor solid-liquid phase extractor for extracting about 50 strokes. The solution was filtered by a 0.45 um Millipore filter. For determination of the TCM extract concentration, slight amount of TCM extract sample was accurately weighed on a pre-weighed aluminum weighing dish. It was dried in a 45° C. oven for 2 hours to evaporate ethanol. The sample dish was weighed again, and the concentration of TCM extract was determined as: conc.=(Dry weight−dish weight)/(wet weight−dish weight)×100%.
(§2) The germ-kill efficacy was determined by a Minimum Inhibitive Concentration test (MIC) and a Minimum Bactericidal Concentration (MBC) test. […] The solution was then serially diluted two-fold so that each subsequent dilution contained 50% of the compound concentration of the previous dilution while maintaining a constant level of nutrients for each dilution. These dilutions were inoculated with representative oral microorganisms, and incubated for 24 hrs at 37° C. For each TCM compound, the lowest dilution that was not turbid was registered as the MIC. The MBC was determined by transferring […] of liquid from no-turbid tubes to fresh growth media and incubated for 48 hrs. […] Table A & B list the MIC and MBC data on P. gingivalis, F. nucleatum and S. nutans.

[2] = tested on: P. gingivalis; experiment: as above; conditions: ethanol TCM extract; Schaedler broth, two-fold dilutions, 24 hrs at 37° C.
Protocol: as §1, §2

[3] = tested on: S. mutans; experiment: as above; conditions: ethanol TCM extract; Schaedler broth, two-fold dilutions, 24 hrs at 37° C.
Protocol: as §1, §2

[4] = tested on: F. nucleatum; experiment: Minimum Bactericidal Concentration (MBC) test of TCM extracts on oral bacteria; conditions: transfer from non-turbid tubes to fresh growth media, 48 hrs
Protocol: as §1, §2

[5] = tested on: P. gingivalis; experiment: as above; conditions: transfer from non-turbid tubes to fresh growth media, 48 hrs
Protocol: as §1, §2

[6] = tested on: S. mutans; experiment: as above; conditions: transfer from non-turbid tubes to fresh growth media, 48 hrs
Protocol: as §1, §2

N=C(NCCCCCCNC(=N)NC(=N)Nc1ccc(Cl)cc1)NC(=N)Nc1ccc(Cl)cc1.O=C(O)[C@H](O)[C@@H](O)[C@H](O)[C@H](O)CO.O=C(O)[C@H](O)[C@@H](O)[C@H](O)[C@H](O)CO [Chlorohexdine Gluconate]
MIC F. nucleatum [1]: 5 ng/mL | MIC P. gingivalis [2]: 2.5 ng/mL | MIC S. mutans [3]: 5 ng/mL | MBC F. nucleatum [4]: 10 ng/mL | MBC P. gingivalis [5]: 5 ng/mL | MBC S. mutans [6]: 10 ng/mL
